Experiment [1] concerns the target T1, ACAT in J774 cells (Mus musculus, UniProt Q61263).
T1 construct: endogenous in cells; host or cells: J774 cells (mouse macrophage-like)
T1 sequence (Q61263 1-540): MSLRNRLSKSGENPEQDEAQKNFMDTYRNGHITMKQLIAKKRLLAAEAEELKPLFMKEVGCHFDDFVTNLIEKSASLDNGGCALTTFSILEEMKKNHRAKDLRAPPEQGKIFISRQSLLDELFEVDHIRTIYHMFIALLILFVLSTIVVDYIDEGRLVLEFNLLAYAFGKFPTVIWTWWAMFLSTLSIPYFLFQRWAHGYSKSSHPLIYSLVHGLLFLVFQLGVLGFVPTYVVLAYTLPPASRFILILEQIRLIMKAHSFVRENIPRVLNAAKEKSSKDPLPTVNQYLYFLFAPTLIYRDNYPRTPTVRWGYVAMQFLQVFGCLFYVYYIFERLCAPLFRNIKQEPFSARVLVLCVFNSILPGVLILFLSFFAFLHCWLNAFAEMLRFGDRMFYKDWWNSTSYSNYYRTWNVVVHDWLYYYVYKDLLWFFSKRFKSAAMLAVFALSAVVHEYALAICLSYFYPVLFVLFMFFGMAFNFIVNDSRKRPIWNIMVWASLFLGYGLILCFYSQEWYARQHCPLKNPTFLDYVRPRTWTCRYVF
The experiment can be described thus: Test for inhibitory activity against ACAT using J774 cells. The note with it: 100 nM of each compound, Mean ± S.D., n = 3, vs DMSO control, read-out: Inhibition rate against ACAT activity in J774 cells. The class given is cell-based. As to the method:
i) Test for inhibitory activity against ACAT using J774 cells:
The ACAT activity of J774 cells was measured as the radioactivity of cholesteryl oleate produced from [^14 C]oleic acid and cholesterol which were added to a culture solution.
The extract was dried to solid under reduced pressure. After the resultant residue was then developed (developing solvent: diethyl ether/hexane/acetic acid=80/20/1) by TLC (thin-layer chromatography), the amount of cholesteryl oleate formed was determined by an imaging plate.

For experiment [2], the target named is T2, ACAT of rat liver microsomes (Rattus norvegicus, UniProt Q7TQM4).
T2 construct: rat liver microsome fraction prepared in accordance with a method known per se; from tissue; host or cells: rat liver microsomes
T2 sequence (Q7TQM4 1-524): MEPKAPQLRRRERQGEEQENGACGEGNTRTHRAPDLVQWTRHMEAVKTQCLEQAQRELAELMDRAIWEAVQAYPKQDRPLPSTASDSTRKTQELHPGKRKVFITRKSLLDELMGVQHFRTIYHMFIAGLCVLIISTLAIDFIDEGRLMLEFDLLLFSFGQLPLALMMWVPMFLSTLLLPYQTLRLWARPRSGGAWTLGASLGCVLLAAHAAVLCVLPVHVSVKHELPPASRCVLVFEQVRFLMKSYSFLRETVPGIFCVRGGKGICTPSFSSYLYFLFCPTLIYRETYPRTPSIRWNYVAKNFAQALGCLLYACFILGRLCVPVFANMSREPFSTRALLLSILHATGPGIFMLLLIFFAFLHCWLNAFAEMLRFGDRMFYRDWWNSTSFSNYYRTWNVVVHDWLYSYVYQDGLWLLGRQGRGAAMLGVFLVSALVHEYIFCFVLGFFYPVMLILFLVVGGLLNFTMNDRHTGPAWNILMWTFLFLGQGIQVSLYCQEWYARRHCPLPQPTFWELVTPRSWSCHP
The experiment can be described thus: Test for inhibitory activity against ACAT using rat liver microsomes. The class given is biochemical. The note with it: 5 min; 100 nM of each compound; Mean ± S.D.; n = 3; vs DMSO control; read-out: Inhibition rate against ACAT activity in rat liver microsome. The method, then: More specifically, [^14 C]oleoyl-CoA and delipidized BSA were added to a rat liver microsome fraction prepared in accordance with a method known per se in the art to conduct a reaction at 37° C. for 5 minutes. After the reaction, the lipid in the reaction mixture was extracted with hexane, and the extract was dried to solid under reduced pressure.
(Liver microsomes are a subcellular fraction often used to study metabolism.)

A word on the inhibition: it is the drop in the measured response relative to a control, in per cent. As to `CC(C)c1cccc(C(C)C)c1NC(=O)NCc1cccc(OCc2ccc([N+](=O)[O-])cc2)c1` [Compound 1, 1-(2,6-diisopropylphenyl)-3-[3-(4-nitrobenzyloxy)benzyl]urea], the inhibition at 0.1 µM in experiment [1] worked out at 86.3 ± 1.58%; in experiment [2], 0%.
